Measurements: patent US10738028B2, “Spiro three-membered ring, spiro five-membered ring peptide deformylase inhibitor and use thereof in antibacteria and anti-tumor” (priority 2016, dated 2020)

Key:
Type in all cases: cell-based
[1] = tested on: Enterococcus faecalis (EFA); test: MIC, two-fold agar dilution (CLSI), clinical isolates
How it was run: (§1)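 Following the American Clinical and Laboratory Standards Institute procedure, agar two-fold dilution served to determine minimum inhibitory concentrations.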

[2] = tested on: Enterococcus faecium (EFM); test: as above
How it was run: as §1

[3] = tested on: Escherichia coli (including ESBLs, non-ESBLs); test: as above
How it was run: as §1

[4] = tested on: Moraxella catarrhalis (BCA); test: as above
How it was run: as §1

[5] = tested on: Streptococcus pneoumoniae (SPN); test: as above
How it was run: as §1

[6] = tested on: methicillin-resistant Staphylococcus aureus (MRSA); test: as above
How it was run: as §1

[7] = tested on: methicillin-resistant Staphylococcus epidermidis (MRSE); test: as above
How it was run: as §1

[8] = tested on: methicillin-sensitive Staphylococcus aureus (MSSA); test: as above
How it was run: as §1

[9] = tested on: methicillin-sensitive Staphylococcus epidermidis (MSSE); test: as above
How it was run: as §1

[10] = tested on: HCT-116 colorectal cancer cell line; test: CCK-8 proliferation inhibition; settings: concentration of 30 μM, 72 hours, CCK-8
How it was run: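 Proliferation over 72 hours of compound treatment was measured with CCK-8 against a 1‰ DMSO control.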

[11] = tested on: A549 lung cancer cell line; test: CCK-8 proliferation inhibition; settings: concentration of 30 μM
How it was run: (§2)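 Plating at 2000 cells/well, then incubation overnight at 37° C. Next, a range of compound concentrations for 72 hours (control 1‰ DMSO). Finally, medium decanted and CCK-8 diluted 1:10 added.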

[12] = tested on: BEL-7402 liver cancer cell line; test: CCK-8 proliferation inhibition; settings: concentration of 30 μM, 72 hours, 30 µM
How it was run: as §2

[13] = tested on: MGC-803 gastric cancer cell line; test: CCK-8 proliferation inhibition; settings: concentration of 30 μM
How it was run: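 Using media specific to each line (1640 for MGC-803 and Jurkat, F12 for PC3, DMEM high glucose for MCF-7, each with 10% newborn bovine serum), cells at 2000/well were treated for 72 h with serially formulated compounds, then assessed with CCK-8 diluted 1:10.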

With `O=C(C[C@@H](CC1CCCC1)C(=O)N1CC2(CC2)C[C@H]1C(=O)Nc1ccncn1)NO` [Example 63] the Anti-bacterial activity (MIC), strain EFA 15-1 ([1]; clinical isolate EFA 15-1) was greater than 32 µg/mL, the Anti-bacterial activity (MIC), strain EFA 15-2 ([1]; clinical isolate EFA 15-2) was greater than 32 µg/mL and the Anti-bacterial activity (MIC), strain EFA 15-3 ([1]; clinical isolate EFA 15-3) was greater than 32 µg/mL. It also gave an Anti-bacterial activity (MIC), strain EFA 15-4 ([1]; clinical isolate EFA 15-4) greater than 32 µg/mL, an Anti-bacterial activity (MIC), strain EFA 15-5 ([1]; clinical isolate EFA 15-5) greater than 32 µg/mL and an Anti-bacterial activity (MIC), strain EFA 15-6 ([1]; clinical isolate EFA 15-6) greater than 32 µg/mL. It also gave an Anti-bacterial activity (MIC), strain EFA 15-9 ([1]; clinical isolate EFA 15-9) of 4 µg/mL, an Anti-bacterial activity (MIC), strain EFM 15-1 ([2]; clinical isolate EFM 15-1) greater than 32 µg/mL and an Anti-bacterial activity (MIC), strain EFM 15-2 ([2]; clinical isolate EFM 15-2) greater than 32 µg/mL. It also gave an Anti-bacterial activity (MIC), strain EFM 15-3 ([2]; clinical isolate EFM 15-3) greater than 32 µg/mL, an Anti-bacterial activity (MIC), strain EFM 15-4 ([2]; clinical isolate EFM 15-4) of 0.5 µg/mL and an Anti-bacterial activity (MIC), strain EFM 15-5 ([2]; clinical isolate EFM 15-5) of 0.25 µg/mL. It also gave an Anti-bacterial activity (MIC), strain EFM 15-6 ([2]; clinical isolate EFM 15-6) of 0.25 µg/mL, an Anti-bacterial activity (MIC), strain ECO+ 15-1 ([3]; clinical isolate ECO+ 15-1) of 16 µg/mL and an Anti-bacterial activity (MIC), strain ECO+ 15-2 ([3]; clinical isolate ECO+ 15-2) of 32 µg/mL. For the same compound, the Anti-bacterial activity (MIC), strain ECO+ 15-3 ([3]; clinical isolate ECO+ 15-3) was 16 µg/mL, the Anti-bacterial activity (MIC), strain ECO+ 15-4 ([3]; clinical isolate ECO+ 15-4) was 16 µg/mL and the Anti-bacterial activity (MIC), strain ECO− 15-1 ([3]; clinical isolate ECO− 15-1) was 16 µg/mL. For the same compound, the Anti-bacterial activity (MIC), strain ECO− 15-2 ([3]; clinical isolate ECO− 15-2) was 16 µg/mL, the Anti-bacterial activity (MIC), strain ECO− 15-3 ([3]; clinical isolate ECO− 15-3) was 32 µg/mL and the Anti-bacterial activity (MIC), strain ECO− 15-4 ([3]; clinical isolate ECO− 15-4) was 16 µg/mL. The Anti-bacterial activity (MIC), strain BCA 14-1 ([4]; clinical isolate BCA 14-1) was 2 µg/mL, the Anti-bacterial activity (MIC), strain BCA 14-4 ([4]; clinical isolate BCA 14-4) was 2 µg/mL and the Anti-bacterial activity (MIC), strain BCA 14-5 ([4]; clinical isolate BCA 14-5) was 0.25 µg/mL. It also gave an Anti-bacterial activity (MIC), strain BCA 14-6 ([4]; clinical isolate BCA 14-6) of 0.25 µg/mL, an Anti-bacterial activity (MIC), strain BCA 14-7 ([4]; clinical isolate BCA 14-7) of 4 µg/mL and an Anti-bacterial activity (MIC), strain BCA 14-8 ([4]; clinical isolate BCA 14-8) of 0.5 µg/mL. It also gave an Anti-bacterial activity (MIC), strain BCA 14-10 ([4]; clinical isolate BCA 14-10) of 0.5 µg/mL, an Anti-bacterial activity (MIC), strain SPN 16-2 ([5]; clinical isolate SPN 16-2) of 0.5 µg/mL and an Anti-bacterial activity (MIC), strain SPN 16-4 ([5]; clinical isolate SPN 16-4) of 0.5 µg/mL. It also gave an Anti-bacterial activity (MIC), strain MRSA 15-1 ([6]; clinical isolate MRSA 15-1) of 0.125 µg/mL, an Anti-bacterial activity (MIC), strain MRSA 15-2 ([6]; clinical isolate MRSA 15-2) of 0.25 µg/mL and an Anti-bacterial activity (MIC), strain MRSA 15-3 ([6]; clinical isolate MRSA 15-3) of 0.125 µg/mL. The Anti-bacterial activity (MIC), strain MRSA 15-4 ([6]; clinical isolate MRSA 15-4) was 0.25 µg/mL, the Anti-bacterial activity (MIC), strain MRSE 15-1 ([7]; clinical isolate MRSE 15-1) was 0.25 µg/mL and the Anti-bacterial activity (MIC), strain MRSE 15-2 ([7]; clinical isolate MRSE 15-2) was 0.25 µg/mL. The Anti-bacterial activity (MIC), strain MRSE 15-3 ([7]; clinical isolate MRSE 15-3) was 0.25 µg/mL, the Anti-bacterial activity (MIC), strain MRSE 15-7 ([7]; clinical isolate MRSE 15-7) was 0.25 µg/mL and the Anti-bacterial activity (MIC), strain MSSA 15-3 ([8]; clinical isolate MSSA 15-3) was 0.25 µg/mL. For the same compound, the Anti-bacterial activity (MIC), strain MSSA 15-4 ([8]; clinical isolate MSSA 15-4) was 0.125 µg/mL, the Anti-bacterial activity (MIC), strain MSSA 15-5 ([8]; clinical isolate MSSA 15-5) was 0.125 µg/mL and the Anti-bacterial activity (MIC), strain MSSA 15-6 ([8]; clinical isolate MSSA 15-6) was 16 µg/mL. It also gave an Anti-bacterial activity (MIC), strain MSSE 15-3 ([9]; clinical isolate MSSE 15-3) of 0.125 µg/mL, an Anti-bacterial activity (MIC), strain MSSE 15-4 ([9]; clinical isolate MSSE 15-4) of 0.25 µg/mL and an Anti-bacterial activity (MIC), strain MSSE 15-5 ([9]; clinical isolate MSSE 15-5) of 0.25 µg/mL. It also gave an Anti-bacterial activity (MIC), strain MSSE 15-6 ([9]; clinical isolate MSSE 15-6) of 0.125 µg/mL, an inhibition at 30 µM ([10]; Homo sapiens, HCT-116, 72 h, read-out: HCT116 inhibition rate/%) greater than 50% and an HCT116 inhibition rate/% ([10]; 30 µM) of 68%. The inhibition at 30 µM ([11]; Homo sapiens, A549, 72 h) was greater than 50%, the “Inhibition of proliferation, Lung cancer A549” value ([11]; 72 hours, 30 µM) was 63% and the “Inhibition of proliferation, Liver cancer BEL-7402” value [12] was 74%. For the same compound, the inhibition at 30 µM ([13]; Homo sapiens, MGC-803, 72 h) was greater than 50% and the “Inhibition of proliferation, Gastric cancer MGC-803” value ([13]; 72 hours, 30 µM) was 58%.
